We go through 23 compounds from patent US20230043863A1, “HETEROAROMATIC DERIVATIVES FOR USE AS REGULATOR, PREPARATION METHOD THEREFOR AND USE THEREOF” (JIANGSU HANSOH PHARMACEUTICAL GROUP CO., LTD., priority 2018, published 2023).

The target of assay [1] is JAK1 (Homo sapiens, UniProt P23458). The assay can be described thus: JAK kinase activity inhibition, TR-FRET (JAK1). Type of assay: biochemical. The note with it: TR-FRET kinase assay. Here is the method:
(§1) Experimental objective: The objective of this test is to test the inhibitory effect of the compound on JAK kinase activity.
(§2) Experimental method: the fluorescence resonance energy transfer (TR-FRET) method was used to test the inhibitory effect of the compound on JAK kinase activity, and the half inhibitory concentration IC50 of the compound on JAK kinase activity was obtained.
(§3) Kinase reaction was carried out in a white 384-well plate (PerkinElmer). 1-5 μL of different concentrations of the compound diluted with DMSO and ddH2O was added into each well, and 1-5 μL of the corresponding solvent was added to the positive control wells, followed by addition of 0.1-20 nM JAK kinase solution diluted with 1-5 μL of kinase buffer (HEPES 50-250 mM, MgCl2 5-20 mM, etc.) was added to each well. 1-5 μL of kinase buffer was added to the negative control well. 1-5 μL of substrate mixture containing peptide substrate and ATP was added. The plate was incubated at room temperature for 0.5-5 hours. […], EDTA and detection solution containing labeled antibody was added, and then the plate was incubated at room temperature for another 1-24 hours. The fluorescence signal value at about 620 nm and 665 nm of each well was measured by BioTek Synergy H1 plate reader, and the inhibition rate was calculated by the fluorescence signal value. According to the inhibition rate of different concentrations, the IC50 of the compound was obtained by curve fitting.
(§4) The percentage inhibition data of the wells treated with the compound was calculated with the positive control wells (DMSO control wells) and negative control wells (no kinase added) on the plate {% inhibition rate=100-[(test compound value-negative control value)]/(Positive control value-negative control value)×100}. IC50 value was calculated by using GraphPad prism to fit the data of different concentrations and corresponding percentage inhibition rates to a 4-parameter non-linear logic formula.
(TR-FRET usually uses a lanthanide donor and a delayed reading to cut background.)

Assay [2] has as its target TYK2 (Homo sapiens, UniProt P29597). The assay is described as follows: JAK kinase activity inhibition, TR-FRET (TYK2). It is filed as biochemical. The note with it: TR-FRET kinase assay. Here is the method: as §1, §2, §3, §4

JAK1, sequence (P23458 whole entry): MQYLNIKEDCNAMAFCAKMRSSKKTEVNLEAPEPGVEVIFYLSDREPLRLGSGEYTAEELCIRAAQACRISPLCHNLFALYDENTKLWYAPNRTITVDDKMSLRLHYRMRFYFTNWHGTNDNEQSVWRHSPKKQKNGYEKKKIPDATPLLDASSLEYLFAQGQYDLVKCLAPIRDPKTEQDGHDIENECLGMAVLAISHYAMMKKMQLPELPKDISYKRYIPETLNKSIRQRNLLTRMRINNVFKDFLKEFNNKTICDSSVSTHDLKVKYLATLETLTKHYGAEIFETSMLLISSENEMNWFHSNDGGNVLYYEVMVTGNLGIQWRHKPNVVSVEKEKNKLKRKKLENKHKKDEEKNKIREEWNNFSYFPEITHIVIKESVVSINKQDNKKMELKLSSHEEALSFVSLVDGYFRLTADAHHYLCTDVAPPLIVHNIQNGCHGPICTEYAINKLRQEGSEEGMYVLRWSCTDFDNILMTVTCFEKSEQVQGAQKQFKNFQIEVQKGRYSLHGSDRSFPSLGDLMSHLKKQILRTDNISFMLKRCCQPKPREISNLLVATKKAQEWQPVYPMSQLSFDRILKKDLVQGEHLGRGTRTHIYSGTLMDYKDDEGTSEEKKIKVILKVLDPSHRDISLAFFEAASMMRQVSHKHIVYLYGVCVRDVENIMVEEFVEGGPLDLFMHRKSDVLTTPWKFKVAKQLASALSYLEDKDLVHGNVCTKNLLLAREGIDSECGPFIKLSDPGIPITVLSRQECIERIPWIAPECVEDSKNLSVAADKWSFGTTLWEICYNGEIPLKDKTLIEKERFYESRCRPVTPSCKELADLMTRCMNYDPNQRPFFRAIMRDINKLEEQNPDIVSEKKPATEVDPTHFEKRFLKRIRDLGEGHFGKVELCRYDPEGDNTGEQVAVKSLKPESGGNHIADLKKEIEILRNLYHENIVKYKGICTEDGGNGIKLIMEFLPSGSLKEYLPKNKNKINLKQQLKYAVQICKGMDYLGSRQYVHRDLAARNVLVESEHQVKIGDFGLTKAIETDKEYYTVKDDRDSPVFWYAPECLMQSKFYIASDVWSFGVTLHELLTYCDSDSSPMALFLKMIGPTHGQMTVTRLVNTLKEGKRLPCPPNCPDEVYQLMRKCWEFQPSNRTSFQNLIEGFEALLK
TYK2, sequence (P29597 whole entry): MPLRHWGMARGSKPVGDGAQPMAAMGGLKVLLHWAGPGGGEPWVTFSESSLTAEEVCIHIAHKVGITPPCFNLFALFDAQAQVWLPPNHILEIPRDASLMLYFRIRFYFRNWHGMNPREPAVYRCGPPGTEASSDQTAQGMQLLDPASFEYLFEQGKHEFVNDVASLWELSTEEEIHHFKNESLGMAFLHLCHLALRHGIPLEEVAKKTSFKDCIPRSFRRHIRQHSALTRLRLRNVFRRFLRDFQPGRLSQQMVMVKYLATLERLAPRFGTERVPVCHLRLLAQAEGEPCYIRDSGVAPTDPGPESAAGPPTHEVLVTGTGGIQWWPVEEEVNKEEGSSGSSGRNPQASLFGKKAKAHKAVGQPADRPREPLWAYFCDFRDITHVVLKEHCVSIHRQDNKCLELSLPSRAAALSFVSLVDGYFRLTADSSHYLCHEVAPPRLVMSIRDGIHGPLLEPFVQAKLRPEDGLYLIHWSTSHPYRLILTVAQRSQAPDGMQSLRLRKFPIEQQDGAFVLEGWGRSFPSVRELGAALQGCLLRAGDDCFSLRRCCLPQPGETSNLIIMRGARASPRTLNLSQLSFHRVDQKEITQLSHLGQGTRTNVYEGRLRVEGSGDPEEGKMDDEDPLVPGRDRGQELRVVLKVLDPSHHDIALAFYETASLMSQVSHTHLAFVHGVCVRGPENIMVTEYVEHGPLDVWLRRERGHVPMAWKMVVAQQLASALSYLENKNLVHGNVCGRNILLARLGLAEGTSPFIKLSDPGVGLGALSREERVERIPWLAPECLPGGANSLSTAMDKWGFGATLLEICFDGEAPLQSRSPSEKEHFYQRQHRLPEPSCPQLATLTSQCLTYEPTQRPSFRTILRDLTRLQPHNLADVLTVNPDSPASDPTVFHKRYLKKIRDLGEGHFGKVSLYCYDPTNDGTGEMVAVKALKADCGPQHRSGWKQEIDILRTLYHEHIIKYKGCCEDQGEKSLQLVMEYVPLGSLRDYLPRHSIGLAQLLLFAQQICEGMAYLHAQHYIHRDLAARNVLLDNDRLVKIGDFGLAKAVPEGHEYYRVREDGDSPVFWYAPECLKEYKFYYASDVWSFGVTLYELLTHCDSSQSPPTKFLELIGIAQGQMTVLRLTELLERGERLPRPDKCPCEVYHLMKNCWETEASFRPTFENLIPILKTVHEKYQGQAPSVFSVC

As a reminder, the IC50 is the concentration needed to halve the response being measured. In the case of `N#CCCN1[C@@H]2CC[C@H]1C[C@H](Nc1nc(Nc3cc[nH]n3)cc3ncccc13)C2` [Embodiment 6, 3-((3-exo)-3-((7-((1H-pyrazol-3-yl)amino)-1,6-diazanaphthalen-5-yl)amino)-8-azabicyclo[3.2.1]oct-8-yl)propionitrile], the IC50 in assay [1] amounted to 4.03 nM; in assay [2], 10.7 nM.

Turning to `N#CCCN1[C@@H]2CC[C@H]1C[C@H](Nc1nc(Nc3cc(F)[nH]n3)cc3ncccc13)C2` [Embodiment 9, 3-((3-exo)-3-((7-((5-fluoro-1H-pyrazol-3-yl)amino)-1,6-diazanaphthalen-5-yl)amino)-8-azabicyclo[3.2.1]oct-8-yl)propionitrile], the figures for the 50% inhibitory concentration (IC50) in assay [1] and in assay [2] were 30.6 nM and above 100 nM, respectively.

As for `N#CCCN1[C@@H]2CC[C@H]1C[C@H](Nc1nc(Nc3cc(C4CC4)[nH]n3)cc3ncccc13)C2` [Embodiment 12, 3-((3-exo)-3-((7-((5-cyclopropyl-1H-pyrazol-3-yl)amino)-1,6-diazanaphthalen-5-yl)amino)-8-azabicyclo[3.2.1]oct-8-yl)propionitrile], the figures for the IC50 in assay [1] and in assay [2] were 2.71 nM and 10.1 nM, respectively.

In the case of `N#CCCN1[C@@H]2CC[C@H]1C[C@H](Nc1nc(Nc3cc(CO)[nH]n3)cc3ncccc13)C2` [Embodiment 19, 3-((3-exo)-3-((7-((5-(hydroxymethyl)-1H-pyrazol-3-yl)amino)-1,6-diazanaphthalen-5-yl)amino)-8-azabicyclo[3.2.1]oct-8-yl)propionitrile], the IC50 in assay [1] was found to be 2.23 nM; in assay [2], 40.7 nM.

Take `Cn1cnc(Nc2cc3ncccc3c(N[C@@H]3C[C@H]4CC[C@@H](C3)N4CCC#N)n2)c1` [Embodiment 25, 3-((3-exo)-3-((7-((1-methyl-1H-imidazol-4-yl)amino)-1,6-diazanaphthalen-5-yl)amino)-8-azabicyclo[3.2.1]oct-8-yl)propionitrile]: the 50% inhibitory concentration (IC50) is 1.63 nM in assay [1] and 4.57 nM in assay [2].

Take `CC(C)(O)c1cnc(Nc2cc3ncccc3c(N[C@@H]3C[C@H]4CC[C@@H](C3)N4CCC#N)n2)s1` [Embodiment 31, 3-((3-exo)-3-((7-((5-(e2-hydroxypropan-2-yl)thiazol-2-yl)amino)-1,6-diazanaphthalen-5-yl)amino)-8-azabicyclo[3.2.1]oct-8-yl)propionitrile]: the results for the IC50 in assay [1] and in assay [2] were 48.6 nM and above 100 nM, respectively.

Consider `N#CCCN1[C@@H]2CC[C@H]1C[C@H](Nc1nc(Nc3ncc(C(N)=O)s3)cc3ncccc13)C2` [Embodiment 35, 2-((5-(((3-exo)-8-(2-cyanoethyl)-8-azabicyclo[3.2.1]oct-3-yl)amino)-1,6-diazanaphthalen-7-yl)amino)thiazol-5-formamide], for which the IC50 in assay [1] came to 5.6 nM; in assay [2] it was 22.2 nM.

With `Cc1cc(Nc2nc(N[C@@H]3C[C@H]4CC[C@@H](C3)N4CCC#N)c3cc[nH]c3n2)n[nH]1` [Embodiment 39, 3-((3-exo)-3-((2-((5-methyl-1H-pyrazol-3-yl)amino)-7H-pyrrolo[2,3-d]pyrimidin-4-yl)amino)-8-azabicyclo[3.2.1]oct-8-yl)propionitrile], the values for the IC50 in assay [1] and in assay [2] were 2.94 nM and 9.49 nM, respectively.

In the case of `Cc1cc(Nc2nc(N[C@@H]3C[C@H]4CC[C@@H](C3)N4CCC#N)nc3[nH]ncc23)n[nH]1` [Embodiment 51, 3-((3-exo)-3-((4-((5-methyl-1H-pyrazol-3-yl)amino)-1H-pyrazolo[3,4-d]pyrimidin-6-yl)amino)-8-azabicyclo[3.2.1]oct-8-yl)propionitrile], the IC50 in assay [1] and in assay [2] was 0.24 nM each time.

As for `Cc1cc(Nc2cc3nccn3c(N[C@@H]3C[C@H]4CC[C@@H](C3)N4CCC#N)n2)n[nH]1` [Embodiment 79, 3-((3-exo)-3-((7-((5-methyl-1H-pyrazol-3-yl)amino)imidazo[1,2-c]pyrimidin-5-yl)amino)-8-azabicyclo[3.2.1]oct-8-yl)propionitrile], the IC50 in assay [1] was found to be 2.95 nM; in assay [2], 5.77 nM.

Take `Cc1cc(Nc2nc(N[C@@H]3C[C@H]4CC[C@@H](C3)N4CCC#N)c3ccccc3n2)n[nH]1` [Embodiment 87, 3-((3-exo)-3-((2-((5-methyl-1H-pyrazol-3-yl)amino)quinazolin-4-yl)amino)-8-azabicyclo[3.2.1]oct-8-yl)propionitrile]: the IC50 in assay [1] is 35.1 nM; in assay [2] it was above 100 nM.

For `Cc1cc(Nc2nc(N[C@@H]3C[C@H]4CC[C@@H](C3)N4CCC#N)nc3ncccc23)n[nH]1` [Embodiment 89, 3-((3-exo)-3-((4-((5-methyl-1H-pyrazol-3-yl)amino)pyrido[2,3-d]pyrimidin-2-yl)amino)-8-azabicyclo[3.2.1]oct-8-yl)propionitrile], the 50% inhibitory concentration (IC50) in assay [1] stood at 0.65 nM; in assay [2], 0.15 nM.

Take `Cc1cc(Nc2nc(N[C@@H]3C[C@H]4CC[C@@H](C3)N4CCC#N)c3cccnc3n2)n[nH]1` [Embodiment 90, 3-((3-exo)-3-((2-((5-methyl-1H-pyrazol-3-yl)amino)pyrido[2,3-d]pyrimidin-4-yl)amino)-8-azabicyclo[3.2.1]oct-8-yl)propionitrile]: the IC50 in assay [1] worked out at 7.23 nM; in assay [2], 21.6 nM.

In the case of `N#CCCN1[C@@H]2CC[C@H]1C[C@H](Nc1nc(Nc3ncc(C#N)s3)cc3ncccc13)C2` [Embodiment 160, 2-((5-(((3-exo)-8-(2-cyanoethyl)-8-azabicyclo[3.2.1]oct-3-yl)amino)-1,6-diazanaphthalen-7-yl)amino)thiazol-5-formonitrile], the IC50 in assay [1] is 11.7 nM; in assay [2] it was 6.15 nM.

With `N#CCCN1[C@@H]2CC[C@H]1C[C@H](Nc1nc(Nc3ncc(CCO)s3)cc3ncccc13)C2` [Embodiment 161, 3-((3-exo)-3-((7-((5-(2-hydroxylethyl)thiazol-2-yl)amino)-1,6-diazanaphthalen-5-yl)amino)-8-azabicyclo[3.2.1]oct-8-yl)propionitrile], the IC50 in assay [1] came to 20.8 nM; in assay [2], 35 nM.

Turning to `O=C(CN1CCCC1)N1[C@@H]2CCC[C@H]1C[C@H](Nc1nc(Nc3ncc(CO)s3)cc3ncccc13)C2` [Embodiment 164, 1-((3-exo)-3-((7-((5-(hydroxymethyl)thiazol-2-yl)amino)-1,6-diazanaphthalen-5-yl)amino)-9-azabicyclo[3.3.1]non-9-yl)-2-(pyrrolidin-1-yl)ethane-1-one], the values for the IC50 in assay [1] and in assay [2] were 0.85 nM and 16.6 nM, respectively.

Consider `O=C(CN1CCCCC1)N1[C@@H]2CC[C@H]1C[C@H](Nc1nc(Nc3ncc(CO)s3)cc3ncccc13)C2` [Embodiment 165, 1-((3-exo)-3-((7-((5-(hydroxymethyl)thiazol-2-yl)amino)-1,6-diazanaphthalen-5-yl)amino)-8-azabicyclo[3.2.1]oct-8-yl)-2-(piperidin-1-yl)ethane-1-one], for which the IC50 was 4.92 nM in assay [1] and above 100 nM in assay [2].

Turning to `Cc1cc(Nc2nc(N[C@@H]3C[C@H]4CC[C@@H](C3)N4CCC#N)nc3cccc(Cl)c23)n[nH]1` [Embodiment 175, 3-((3-exo)-3-((5-chloro-4-((5-methyl-1H-pyrazol-3-yl)amino)quinazolin-2-yl)amino)-8-azabicyclo[3.2.1]oct-8-yl)propionitrile], the IC50 in assay [1] is above 100 nM; in assay [2], 42.8 nM.

Turning to `Cc1cc(Nc2nc(N[C@@H]3C[C@H]4CC[C@@H](C3)N4CCC#N)nc3c(C)cccc23)n[nH]1` [Embodiment 176, 3-((3-exo)-3-((8-methyl-4-((5-methyl-1H-pyrazol-3-yl)amino)quinazolin-2-yl)amino)-8-azabicyclo[3.2.1]oct-8-yl)propionitrile], the IC50 in assay [1] turned out to be 4.18 nM; in assay [2], 2.36 nM.

On to `Cc1cc(Nc2nc(N[C@@H]3C[C@H]4CC[C@@H](C3)N4CCC#N)nc3c(Cl)cccc23)n[nH]1` [Embodiment 177, 3-((3-exo)-3-((8-chloro-4-((5-methyl-1H-pyrazol-3-yl)amino)quinazolin-2-yl)amino)-8-azabicyclo[3.2.1]oct-8-yl)propionitrile], for which the values for the IC50 in assay [1] and in assay [2] were 3.36 nM and 1.58 nM, respectively.

For the compound `Cc1cc(Nc2nc(N[C@@H]3C[C@H]4CC[C@@H](C3)N4CCC#N)nc3ccc(Cl)cc23)n[nH]1` [Embodiment 178, 3-((3-exo)-3-((6-chloro-4-((5-methyl-1H-pyrazol-3-yl)amino)quinazolin-2-yl)amino)-8-azabicyclo[3.2.1]oct-8-yl)propionitrile], the concentration for half-maximal inhibition (IC50) in assay [1] is 10.6 nM; in assay [2], above 100 nM.

For `Cc1cc(Nc2nc(N[C@@H]3C[C@H]4CC[C@@H](C3)N4CCC#N)nc3cc(-c4ccncc4)ccc23)n[nH]1` [Embodiment 180, 3-((3-exo)-3-((4-((5-methyl-1H-pyrazol-3-yl)amino)-7-(pyridin-4-yl)quinazolin-2-yl)amino)-8-azabicyclo[3.2.1]oct-8-yl)propionitrile], the 50% inhibitory concentration (IC50) is 0.35 nM in assay [1] and 0.56 nM in assay [2].

In the case of `COc1cncc(-c2ccc3c(Nc4cc(C)[nH]n4)nc(N[C@@H]4C[C@H]5CC[C@@H](C4)N5CCC#N)nc3c2)c1` [Embodiment 182], the figures for the IC50 in assay [1] and in assay [2] were 0.37 nM and 0.25 nM, respectively.
